# Where a SMILES comes first, the peptide text is derived from it. [ ]: non-standard residue; d: D form. The star is where a group is joined. ξ: configuration not given here. Biotinyl(4ξ) = O=C1N[C@H]2CSC(CCCCC(=O)*)[C@H]2N1; pY = N[C@@H](Cc1ccc(OP(=O)(O)O)cc1)C(=O)O; ξIle = CC[C@H](C)C(N)C(=O)O
# Columns and labels:
# HEK293T cells [1] = experiment: Cell migration by wound healing method in response to Wnt3A; format: cell-based; conditions: 1 μM, Wnt3A 30 ng/ml, 48 hours, FIG. 42
# HEK293T cells [2] = experiment: MTT proliferation with stimulants (FIG. 37); format: cell-based; conditions: pre-incubated one hour, stimulant 48 hours
# Protocol: (§1) The MTT assay was performed to measure the proliferation of various cancer cell lines, such as HEK293T, LN18 glioma, HepG2 liver cancer, AGS gastric cancer, and A549 lung cancer cells.
# LN18 cells = experiment: MTT proliferation with stimulants (FIG. 37); format: cell-based; conditions: pre-incubated one hour, stimulant 48 hours
# Protocol: as §1
# HepG2 cells [3] = experiment: MTT proliferation with stimulants (FIG. 37); format: cell-based; conditions: pre-incubated one hour, stimulant 48 hours
# Protocol: as §1
# A549 cells = experiment: MTT proliferation with stimulants (FIG. 37); format: cell-based; conditions: pre-incubated one hour, stimulant 48 hours
# Protocol: as §1
# [4] = molecular target: T1, p-Tyr42 RhoA and β-catenin (Homo sapiens, UniProt P35222); experiment: Co-immunoprecipitation of p-Tyr42 RhoA with β-catenin after Wnt3A; format: cell-based; conditions: cells pretreated with inhibitor, then Wnt3A; FIGS. 20 and 21
# T1 construct: endogenous in cells
# T1 sequence (P35222 2-781 limits assumed): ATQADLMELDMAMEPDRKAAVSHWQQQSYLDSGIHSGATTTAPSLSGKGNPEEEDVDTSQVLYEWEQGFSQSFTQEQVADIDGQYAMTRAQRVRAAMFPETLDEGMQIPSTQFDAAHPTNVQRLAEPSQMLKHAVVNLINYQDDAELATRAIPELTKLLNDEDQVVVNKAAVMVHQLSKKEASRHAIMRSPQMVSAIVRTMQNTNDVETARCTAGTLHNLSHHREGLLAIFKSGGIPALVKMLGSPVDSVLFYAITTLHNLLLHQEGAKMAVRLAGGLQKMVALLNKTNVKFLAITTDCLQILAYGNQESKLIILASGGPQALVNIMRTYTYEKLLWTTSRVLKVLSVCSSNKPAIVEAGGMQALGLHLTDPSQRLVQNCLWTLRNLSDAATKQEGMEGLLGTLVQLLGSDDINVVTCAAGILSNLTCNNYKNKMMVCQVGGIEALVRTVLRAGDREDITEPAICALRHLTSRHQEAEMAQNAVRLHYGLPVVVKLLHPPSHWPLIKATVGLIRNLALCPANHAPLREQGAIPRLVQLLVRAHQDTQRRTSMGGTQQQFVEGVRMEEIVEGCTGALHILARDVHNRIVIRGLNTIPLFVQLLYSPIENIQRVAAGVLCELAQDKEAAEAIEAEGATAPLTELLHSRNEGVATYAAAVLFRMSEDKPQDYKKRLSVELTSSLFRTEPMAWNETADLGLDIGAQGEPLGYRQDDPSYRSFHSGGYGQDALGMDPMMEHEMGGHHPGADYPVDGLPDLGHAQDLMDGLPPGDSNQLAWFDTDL
# Protocol: (§2) HEK293T cells were collected and washed with ice-cold PBS, and dissolved with RIPA buffer (50 mM Tris-HCl (pH7.4), 150 mM NaCl, 1% Nonidet P-40, 0.25% NaN3, 1 mM EDTA, 1 mM PMSF, 1 μg/mL aprotinin, 1 μg/mL leupeptin, 1 μg/mL pepstatin, 1 mM sodium orthovanadate, and 1 mM NaF). The cell lysate was centrifuged at 13,475×g for 20 minutes and the supernatant was analyzed for protein concentration using the BCA Protein Assay Kit (Pierce; Rockford, USA). Proteins of the cell lysate were run on SDS-PAGE and transferred to a PVDF membrane (Millipore; Billerica, USA). Anti-RhoA ( 1/500), anti-actin (Santa Cruz; Dallas, Calif.), anti-GSK-3β( 1/500), anti-phospho (Ser9)-GSK-3β( 1/500) (both Cell Signaling, Beverly, USA), anti-O-catenin ( 1/1000) (Invitrogen, Carlsbad, USA), anti-active β-catenin ( 1/500) (Millipore, Billerica, USA), and anti-Tau ( 1/500) (Biosource; Camarillo, Calif.) antibodies were incubated with PVDF membranes at room temperature for 2 hours, and then each was washed 3 times for 5 minutes. Thereafter, the membrane was incubated for 1 hour with anti-rat IgG antibody or anti-mouse IgG antibody conjugated with horse radish peroxidase (HRP) (both provided by ENZO Life Science; Farmingdale, USA, 1/1000 dilution) and each was washed later three times for 10 minutes. The membrane was incubated with an enhanced chemiluminescence (ECL) reagent (Amersham; Uppsala, Sweden) and then exposed to an X-ray film. The strength of the band was quantified with the ImageJ program of the U.S. National Institutes of Health (Bethesda, USA).
# 1×10^7 Cells were washed with 1×PBS, and the cell lysate was prepared using cell lysis buffer (20 mM Tris pH 7.4, 120 mM NaCl, and 1% Nonidet P-40) containing 10 μg/mL each of leupeptin and aprotinin and each of NaF, Na3VO4, PMSF and 5 mM MgCl2. The lysate was used for immunoprecipitation by specific antibodies. […]
# HepG2 cells [5] = experiment: MTT proliferation, substituted amino acids of EM3 (FIGS. 39, 40); format: cell-based; conditions: DMEM 2.5% FBS 48 hours, FIG. 40 legend
# Protocol: FIGS. 39 and 40 show the effect of the substituted amino acids of EM3 on cell proliferation, and the present inventors have designed various peptide inhibitors replaced with other amino acids. The cells were cultured in DMEM containing 2.5% FBS for 48 hours and cell proliferation was measured by MTT assay.
# cyclin D1 and c-Myc = experiment: Wnt3A-induced cyclin D1 and c-Myc expression, Western blotting; format: cell-based; conditions: HEK293T; pretreated one hour; Wnt3A 30 ng/mL two hours; FIG. 9
# Protocol: as §2, with “Thereafter, the membrane was incubated for 1 hour with anti-rat IgG antibody or anti-mouse IgG antibody conjugated with horse radish peroxidase (HRP) (both provided by ENZO Life Science; Farmingdale, USA, 1/1000 dilution) and each was washed later three times for 10 minutes. The membrane was incubated with an enhanced chemiluminescence (ECL) reagent (Amersham; Uppsala, Sweden) and then exposed to an X-ray film.” left out
# HEK293T cells [6] = experiment: Wnt3A-induced cell proliferation, fluorescence microscopy; format: cell-based; conditions: Tat-C3 1 μg/mL, Y27632 10 μM pretreated one hour; Wnt3A 30 ng/mL two days; FIG. 6
# Protocol: (§3) All cells tested were cultured in Dulbecco's Modified Eagle Medium (DMEM; Weljin, Gyeongsan) containing 5% fetal bovine serum (FBS; GIBCO, Carlsbad, USA) and 1% penicillin-streptomycin (complete medium) under 5% CO2 at 37° C.
# [7] = system: macrophage cell line RAW264.7; experiment: Wnt3A-mediated cell proliferation, fluorescence microscopy; format: cell-based, mouse; conditions: Tat-C3 1 μg/mL, Y27632 10 μM pretreated one hour; Wnt3A 30 ng/mL two days; FIG. 7
# Protocol: as §3
# 4T1 cells = experiment: Xenotransplantation experiment with 4T1 cells in BALB/c mice; format: in vivo; conditions: EM3 2.5 mM, 10 μL/mouse daily
# Protocol: Animal care and experiments were performed by the approval of the Institutional Animal Care and Use Committee (HIRB-2016-52) of Hallym University. Male BALB/c mice (7 weeks old) were injected with 4T1 cells (5×10^5 cells in […] of 1×PBS), and randomly assigned to an EM3 treatment group (7 mice) or the control group (6 mice). The normal group also included two non-tumor mice. Cells were injected subcutaneously and EM3 (2.5 mM, 10 μL/mouse) and 1× PBS (10 μL/mouse) were applied daily. Tumor volume was measured daily and tumor weight and spleen size were measured after sacrificing the mice.
# HT29 = experiment: MTT proliferation, FBS-stimulated (FIG. 38); format: cell-based; conditions: pretreated one hour, 2% FBS 48 hours
# Protocol: (§4) The MTT assay was performed to measure the proliferation of various cancer cell lines, such as HEK293T, LN18 glioma, HepG2 liver cancer, HT29 colon cancer, 4T1 mouse breast cancer, and RAW264.7 mouse macrophages.
# LN18 = experiment: MTT proliferation, FBS-stimulated (FIG. 38); format: cell-based; conditions: pretreated one hour, 2% FBS 48 hours
# Protocol: as §4
# HEK293T = experiment: MTT proliferation, FBS-stimulated (FIG. 38); format: cell-based; conditions: pretreated one hour, 2% FBS 48 hours
# Protocol: as §4
# HepG2 = experiment: MTT proliferation, FBS-stimulated (FIG. 38); format: cell-based; conditions: pretreated one hour, 2% FBS 48 hours
# Protocol: as §4
# 4T1 = experiment: MTT proliferation, FBS-stimulated (FIG. 38); format: cell-based, mouse; conditions: pretreated one hour, 2% FBS 48 hours
# Protocol: as §4
# RAW264.7 cells = experiment: MTT proliferation, FBS-stimulated (FIG. 38); format: cell-based, mouse; conditions: pretreated one hour, 2% FBS 48 hours
# Protocol: as §4
compound,measurement,setting,value
CC[C@H](C)C(NC(=O)[C@H](CC(=O)O)NC(=O)[C@H](C)NC(=O)[C@@H](NC(=O)[C@H](Cc1ccc(O)cc1)NC(=O)[C@H](CC(N)=O)NC(=O)[C@H](CCC(=O)O)NC(=O)[C@H](Cc1ccccc1)NC(=O)[C@@H](NC(=O)[C@@H](NC(=O)CCCCC1SC[C@@H]2NC(=O)N[C@H]12)[C@@H](C)O)C(C)C)C(C)C)C(=O)N[C@@H](CCC(=O)O)C(=O)O (stereo partly shown) [EM4] ({Biotinyl(4ξ)}-TVFENYVAD[ξIle]E-OH),migration of HEK293 cells in response to Wnt3A,HEK293T cells [1],reducing the migration
CC(C)[C@H](NC(=O)[C@H](Cc1ccc(OP(=O)(O)O)cc1)NC(=O)[C@@H](N)CC(N)=O)C(=O)N[C@@H](C)C(N)=O [PR3] (H-N[pY]VA-NH2),migration of HEK293 cells in response to Wnt3A,HEK293T cells [1],reducing the migration
same,proliferation of HEK293T cells by LPS,HEK293T cells [2],significantly inhibited
same,proliferation of HEK293T cells by Wnt3A,HEK293T cells [2],significantly inhibited
same,proliferation of HEk293T cells by H2O2,HEK293T cells [2],significantly inhibited
same,proliferation of LN18 cells by EGF,LN18 cells,significantly inhibited
same,proliferation of HepG2 cells by insulin,HepG2 cells [3],significantly inhibited
same,proliferation of A549 cells by PMA,A549 cells,significantly inhibited
same,co-immunoprecipitation of p-Tyr42 RhoA and β-catenin,[4],inhibited
CC(C)[C@H](NC(=O)[C@H](Cc1ccc(O)cc1)NC(=O)[C@@H](N)CC(N)=O)C(=O)N[C@@H](C)C(N)=O [PR2] (H-NYVA-NH2),proliferation of HEK293T cells by LPS,HEK293T cells [2],significantly inhibited
same,proliferation of HEK293T cells by Wnt3A,HEK293T cells [2],significantly inhibited
same,proliferation of HEk293T cells by H2O2,HEK293T cells [2],significantly inhibited
same,proliferation of LN18 cells by EGF,LN18 cells,significantly inhibited
same,proliferation of HepG2 cells by insulin,HepG2 cells [3],significantly inhibited
same,proliferation of A549 cells by PMA,A549 cells,significantly inhibited
same,co-immunoprecipitation of p-Tyr42 RhoA and β-catenin,[4],inhibited
AYVA [HL1],"inhibitory effect on HepG2 cell proliferation, compared with EM3",HepG2 cells [5],less effective than EM3
C[C@@H](N)[C@H]1CC[C@H](C(=O)Nc2ccncc2)CC1 [Y27632],Wnt3A-increased expression of cyclin D1 and c-Myc,cyclin D1 and c-Myc,abolished this increased expression
same,proliferation of HEK293T cells by Wnt3A,HEK293T cells [6],abolished
same,Wnt3A-mediated proliferation in RAW264.7,[7],inhibited
NYLA [HL5],"inhibitory effect on HepG2 cell proliferation, compared with EM3",HepG2 cells [5],less effective than EM3
NFVA [HL7],"inhibitory effect on HepG2 cell proliferation, compared with EM3",HepG2 cells [5],less effective than EM3
NYVA-NH2 [EM3],tumor volume,"4T1 cells; 4T1 cells subcutaneous, FIG. 43A",dramatically decreased
same,tumor weight,"4T1 cells; 4T1 cells subcutaneous, after sacrifice, FIG. 43B",dramatically decreased
same,spleen size,"4T1 cells; 4T1 tumor, after sacrifice, FIG. 43C",same size compared to control mice
same,migration of HEK293 cells in response to Wnt3A,HEK293T cells [1],reducing the migration
same,proliferation of FBS-stimulated HT29 cells,HT29,significantly inhibited
same,proliferation of FBS-stimulated LN18 cells,LN18,significantly inhibited
same,proliferation of FBS-stimulated HEK293T cells,HEK293T,significantly inhibited
same,proliferation of FBS-stimulated HepG2 cells,HepG2,significantly inhibited
same,co-immunoprecipitation of p-Tyr42 RhoA and β-catenin,[4],inhibited
same,proliferation of FBS-stimulated 4T1 cells,4T1,significantly inhibited
same,proliferation of FBS-stimulated RAW264.7 cells,RAW264.7 cells,significantly inhibited
NYVS [HL4],"inhibitory effect on HepG2 cell proliferation, compared with EM3",HepG2 cells [5],less effective than EM3

# — patent US20230086119A1, “ANTICANCER AGENT CONTAINING RHOA PEPTIDE INHIBITOR AS AN ACTIVE INGREDIENT” (EL MED, priority 2020, published 2023)
